Data on 27 compounds can be found in patent publication US9561228B2 (Celgene Avilomics Research, Inc., priority 2013, dated 2017).

Structures are written as SMILES. Where only a bound is given, the exact number is not on record here.

In general, GI50 refers to the concentration giving 50% growth inhibition. Read a high GI50 as lower sensitivity of the cells.

What all share (type): cell-based
Assay [1] deals with A375 cells (malignant melanoma). As to the kind of experiment: Inhibition of cancer cell proliferation, A375 (CellTiterGlo, 72 hours). As to conditions: Homo sapiens, A-375. The method, boiled down:
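A375 melanoma cells, 3000/well, exposed 72 h at 37 °C to compound in 3-fold serial dilutions (solution added as 2× stock starting at 5,000 nM in serum-free DMEM). CellTiterGlo luminescence converted to cell number via standard curve; % inhibition vs untreated control, GI50 from curve fit.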

Assay [2] concerns HT-29 cells (colorectal adenocarcinoma). As to the kind of experiment: Inhibition of cancer cell proliferation, HT-29 (CellTiterGlo, 72 hours). The conditions noted are these: Homo sapiens. The method, boiled down:
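HT-29 cells seeded at 3000/well, then treated with 3-fold serial dilutions from a 5,000 nM two-fold solution in serum-free RPMI1640, untreated wells as control, for 72 h at 37° C. CellTiterGlo luminescence converted to cell number via a standard curve; GI50 from percent inhibition versus untreated growth.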
For orientation: ATP-based viability assays read luminescence as a measure of living cells.

The subject of assay [3] is ERK1/2 phosphorylation of p90RSK in HCT116 cells. Kind of assay: Detection of total and phospho-RSK by MSD ELISA (HCT116). As to conditions: Homo sapiens, HCT-116, read-out: ERK1/ERK2 PRSK HCT116 EC50. The method, boiled down:
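HCT116 cells treated with compound in RPMI/10% FBS for 2 h at 37° C, then lysed. Phospho-RSK (Ser380) and total RSK in lysates measured by MSD sandwich electrochemiluminescence ELISA as a readout of ERK1/2 activity.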

As to `C=CC(=O)Nc1ccccc1Nc1nc(N[C@H]2CCN(C(C)=O)C2)ncc1C(F)(F)F` [Compound I-56, (S)—N-(2-((2-((1-Acetylpyrrolidin-3-yl)amino)-5-(trifluoromethyl)pyrimidin-4-yl)amino)phenyl)acrylamide], the GI50 in assay [1] and in assay [2] was 101 to 500 nM throughout. On to `C=CC(=O)Nc1ccccc1Nc1nc(N[C@H]2CCN(C(=O)CO)C2)ncc1C(F)(F)F` [Compound I-57, (S)—N-(2-((2-((1-(2-Hydroxyacetyl)pyrrolidin-3-yl)amino)-5-(trifluoromethyl)pyrimidin-4-yl)amino)phenyl)acrylamide], for which the GI50 in assay [1] and in assay [2] was 101 to 500 nM throughout. Take `C=CC(=O)Nc1ccccc1Nc1nc(N[C@H]2CCN(S(C)(=O)=O)C2)ncc1C(F)(F)F` [Compound I-58, (S)—N-(2-((2-((1-(Methylsulfonyl)pyrrolidin-3-yl)amino)-5-(trifluoromethyl)pyrimidin-4-yl)amino)phenyl)acrylamide]: the GI50 in assay [1] and in assay [2] was 101 to 500 nM each time. Take `C=CC(=O)Nc1ccccc1Nc1nc(N[C@H]2CCN(C(=O)OC)C2)ncc1C(F)(F)F` [Compound I-59, (S)-methyl 3-((4-((2-Acrylamidophenyl)amino)-5-(trifluoromethyl)pyrimidin-2-yl)amino)pyrrolidine-1-carboxylate]: the GI50 in assay [1] and in assay [2] was 101 to 500 nM each time. In the case of `C=CC(=O)Nc1ccccc1Nc1nc(N[C@@H]2CCN(C(C)=O)C2)ncc1C(F)(F)F` [Compound I-60, (R)—N-(2-((2-((1-Acetylpyrrolidin-3-yl)amino)-5-(trifluoromethyl)pyrimidin-4-yl)amino)phenyl)acrylamide], the GI50 in assay [1] is more than 1000 nM; in assay [2], 101 to 500 nM. The matching figures for `C=CC(=O)Nc1cc(OC)ccc1Nc1nc(N[C@H]2CCCN(C(=O)CO)C2)ncc1C(F)(F)F` [Compound I-64, (S)—N-(2-((2-((1-(2-Hydroxyacetyl)piperidin-3-yl)amino)-5-(trifluoromethyl)pyrimidin-4-yl)amino)-5-methoxyphenyl)acrylamide]: less than 100 nM and less than 100 nM. For `C=CC(=O)Nc1ccccc1Nc1nc(Nc2cc(C(N)=O)ccc2C)ncc1C(F)(F)F` [Compound I-68, 3-(4-(2-Acrylamidophenylamino)-5-(trifluoromethyl)pyrimidin-2-ylamino)-4-methylbenzamide] the same measures were less than 100 nM and less than 100 nM. Take `C=CC(=O)Nc1cc(OC)ccc1Nc1nc(Nc2cc(OC)nc(N3CCN(CC)CC3)c2)ncc1C(F)(F)F` [Compound I-88, N-(2-((2-((2-(4-Ethylpiperazin-1-yl)-6-methoxypyridin-4-yl)amino)-5-(trifluoromethyl)pyrimidin-4-yl)amino)-5-methoxyphenyl)acrylamide]: the GI50 in assay [1] and in assay [2] was less than 100 nM throughout. In the case of `C=CC(=O)Nc1cc(C)ccc1Nc1nc(Nc2cc(OC)nc(N3CCN(CC)CC3)c2)ncc1C(F)(F)F` [Compound I-89, N-(2-((2-((2-(4-Ethylpiperazin-1-yl)-6-methoxypyridin-4-yl)amino)-5-(trifluoromethyl)pyrimidin-4-yl)amino)-5-methylphenyl)acrylamide], the concentration for 50% growth inhibition (GI50) in assay [1] and in assay [2] was less than 100 nM throughout. `C=CC(=O)Nc1cc(C)ccc1Nc1nc(Nc2cc(OC)ncc2C)ncc1C(F)(F)F` [Compound I-90, N-(2-((2-((2-Methoxy-5-methylpyridin-4-yl)amino)-5-(trifluoromethyl)pyrimidin-4-yl)amino)-5-methylphenyl)acrylamide]: the GI50 in assay [1] and in assay [2] was 101 to 500 nM in each case. Also, the EC50 in assay [3] lay within 101 to 500 nM. In the case of `C=CC(=O)Nc1cc(OC)ccc1Nc1nc(Nc2cc(OC)nc(N3CCN(C(C)=O)CC3)c2)ncc1C(F)(F)F` [Compound I-91, N-(2-((2-((2-(4-Acetylpiperazin-1-yl)-6-methoxypyridin-4-yl)amino)-5-(trifluoromethyl)pyrimidin-4-yl)amino)-5-methoxyphenyl)acrylamide], the GI50 in assay [1] and in assay [2] was less than 100 nM in each case. The EC50 in assay [3] is less than 100 nM. As for `C=CC(=O)Nc1cc(C)ccc1Nc1nc(Nc2cc(OC)nc(N3CCOCC3)c2)ncc1C(F)(F)F` [Compound I-94, N-(2-((2-((2-Methoxy-6-morpholinopyridin-4-yl)amino)-5-(trifluoromethyl)pyrimidin-4-yl)amino)-5-methylphenyl)acrylamide], the GI50 in assay [1] and in assay [2] was less than 100 nM throughout.

As to `C=CC(=O)Nc1ccccc1Nc1nc(Nc2cc(OC)nc(OC)c2)ncc1C(F)(F)F` [Compound I-95, N-(2-((2-((2,6-Dimethoxypyridin-4-yl)amino)-5-(trifluoromethyl)pyrimidin-4-yl)amino)phenyl)acrylamide], the GI50 in assay [1] and in assay [2] was less than 100 nM throughout. In the case of `C=CC(=O)Nc1ccccc1Nc1nc(N[C@H]2CCCN(C(C)=O)C2)ncc1Cl` [Compound I-115, (S)—N-(2-((2-((1-acetylpiperidin-3-yl)amino)-5-chloropyrimidin-4-yl)amino)phenyl)acrylamide], the GI50 in assay [1] and in assay [2] was less than 100 nM in each case.

For `C=CC(=O)Nc1cc(C)ccc1Nc1nc(N[C@H]2CCCN(C(=O)CO)C2)ncc1Cl` [Compound I-140, (S)—N-(2-((5-chloro-2-((1-(2-hydroxyacetyl)piperidin-3-yl)amino)pyrimidin-4-yl)amino)-5-methylphenyl)acrylamide], the GI50 in assay [1] and in assay [2] was less than 100 nM throughout. Consider `C=CC(=O)Nc1cc(C)ccc1Nc1nc(Nc2cc(C(N)=O)ccn2)ncc1Cl` [Compound I-238, 2-((4-((2-acrylamido-4-methylphenyl)amino)-5-chloropyrimidin-2-yl)amino)isonicotinamide], for which the GI50 in assay [1] and in assay [2] was 101 to 500 nM in each case.

Turning to `C=CC(=O)Nc1cc(OC)ccc1Nc1nc(Nc2cc(OC)ncc2C)ncc1Cl` [Compound I-242, N-(2-((5-chloro-2-((2-methoxy-5-methylpyridin-4-yl)amino)pyrimidin-4-yl)amino)-5-methoxyphenyl)acrylamide], the GI50 in assay [1] and in assay [2] was less than 100 nM each time. Further, the EC50 in assay [3] was more than 1000 nM.

Consider `C=CC(=O)Nc1cc(OC)ccc1Nc1nc(Nc2cc(Cl)nc(OC)c2)ncc1Cl` [Compound I-245, N-(2-((5-chloro-2-((2-chloro-6-methoxypyridin-4-yl)amino)pyrimidin-4-yl)amino)-5-methoxyphenyl)acrylamide], for which the GI50 in assay [1] and in assay [2] was 101 to 500 nM throughout. For the compound `C=CC(=O)Nc1ccccc1Nc1nc(Nc2cc(Cl)nc(OC)c2)ncc1Cl` [Compound I-246, N-(2-((5-chloro-2-((2-chloro-6-methoxypyridin-4-yl)amino)pyrimidin-4-yl)amino)phenyl)acrylamide], the GI50 in assay [1] and in assay [2] was less than 100 nM each time. `C=CC(=O)Nc1ccccc1Nc1nc(Nc2cc(OC)nc(N3CCCC3)c2)ncc1C(F)(F)F` [Compound I-281, N-(2-((2-((2-Methoxy-6-(pyrrolidin-1-yl)pyridin-4-yl)amino)-5-(trifluoromethyl)pyrimidin-4-yl)amino)phenyl)acrylamide]: the GI50 in assay [1] and in assay [2] was less than 100 nM throughout. Moreover, the EC50 in assay [3] is less than 100 nM. As to `C=CC(=O)Nc1ccccc1Nc1nc(Nc2cc(F)ccc2C)ncc1C(F)(F)F` [Compound I-285, N-(2-((2-((5-Fluoro-2-methylphenyl)amino)-5-(trifluoromethyl)pyrimidin-4-yl)amino)phenyl)acrylamide], the EC50 in assay [3] was more than 1000 nM. Still for that read-out and setting: for `C=CC(=O)Nc1ccccc1Nc1nc(Nc2ccnc(F)c2)ncc1C(F)(F)F` [Compound I-287, N-(2-((2-((2-Fluoropyridin-4-yl)amino)-5-(trifluoromethyl)pyrimidin-4-yl)amino)phenyl)acrylamide] the value was 101 to 500 nM.

Consider `C=CC(=O)Nc1cc(C)ccc1Nc1nc(Nc2ccnc(F)c2)ncc1C(F)(F)F` [Compound I-288, N-(2-((2-((2-Fluoropyridin-4-yl)amino)-5-(trifluoromethyl)pyrimidin-4-yl)amino)-5-methylphenyl)acrylamide], for which the EC50 in assay [3] is 101 to 500 nM. The compound `C=CC(=O)Nc1ccccc1Nc1nc(Nc2cc(N[C@H]3CC[C@@H](O)CC3)nc(OC)c2)ncc1C(F)(F)F` [Compound I-292] yielded a GI50 in assay [1] of less than 100 nM. In addition, the EC50 in assay [3] is less than 100 nM. As for `C=CC(=O)Nc1cc(C)ccc1Nc1nc(Nc2cc(C)nc(OC)c2)ncc1C(F)(F)F` [Compound I-295, N-(2-((2-((2-methoxy-6-methylpyridin-4-yl)amino)-5-(trifluoromethyl)pyrimidin-4-yl)amino)-5-methylphenyl)acrylamide], in assay [3], the EC50 was less than 100 nM.

In the case of `C=CC(=O)Nc1cc(C)ccc1Nc1nc(Nc2cc(N[C@H]3CC[C@@H](O)CC3)nc(OC)c2)ncc1C(F)(F)F` [Compound I-326, N-(2-((2-((2-((cis-4-hydroxycyclohexyl)amino)-6-methoxypyridin-4-yl)amino)-5-(trifluoromethyl)pyrimidin-4-yl)amino)-5-methylphenyl)acrylamide], in assay [1], the GI50 is less than 100 nM. Further, the EC50 in assay [3] was less than 100 nM. Turning to `C=CC(=O)Nc1cc(C)ccc1Nc1nc(Nc2cc(OC)ccc2C)ncc1C(F)(F)F` [Compound I-341, N-(2-((2-((5-methoxy-2-methylphenyl)amino)-5-(trifluoromethyl)pyrimidin-4-yl)amino)-5-methylphenyl)acrylamide], the EC50 in assay [3] was more than 1000 nM.
